Experiments:
[1] = biological target: T1, C-C chemokine receptor type 4 (Homo sapiens, UniProt P51679); experiment: Antagonist activity at recombinant human CCR4 expressed in CHO-K1 cells assessed as inhibition of CCL22 induced Ca2+ mobilization after 2 hrs by FMAT based fluorescence assay; format: functional, cell-based
T1 sequence (P51679 whole entry): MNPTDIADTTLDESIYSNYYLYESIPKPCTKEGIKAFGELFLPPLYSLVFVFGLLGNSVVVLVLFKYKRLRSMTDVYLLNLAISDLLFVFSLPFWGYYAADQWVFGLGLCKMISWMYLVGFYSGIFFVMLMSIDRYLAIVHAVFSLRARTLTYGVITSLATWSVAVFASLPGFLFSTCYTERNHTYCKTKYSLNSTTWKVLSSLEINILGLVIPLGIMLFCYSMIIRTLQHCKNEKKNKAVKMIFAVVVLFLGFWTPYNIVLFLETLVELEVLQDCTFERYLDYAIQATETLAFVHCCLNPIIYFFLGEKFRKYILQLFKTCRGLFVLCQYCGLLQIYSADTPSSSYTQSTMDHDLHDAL

[2] = Protein binding in human plasma; format: ADME, cell-free; details: read-out: PPB (converted)
[3] = Lipophilicity, log P of the compound; format: physicochemical; details: octanol/water
[4] = biological target: T2, C-C chemokine receptor type 4 (Homo sapiens) (UniProt P51679); experiment: Antagonist activity at recombinant human CCR4 expressed in CHO-K1 cells assessed as inhibition of CCL22 induced Ca2+ mobilization at 10 uM after 2 hrs by FMAT based fluorescence assay relative to control; format: functional, cell-based
T2 sequence (whole entry): T1 sequence (P51679 whole entry)

Structure (SMILES)	IC50 [1] [nM]	fraction unbound [2]	logP [3]	inhibition [4] [%]
CC(C)(C)COc1nc(Cl)cnc1NS(=O)(=O)c1cccc(Cl)c1Cl	7940	–	–	–
COc1nc(Cl)cnc1NS(=O)(=O)c1ccnc(Cl)c1Cl	10000	–	–	–
O=S(=O)(Nc1ncc(Cl)nc1OCc1cccc(Br)c1)c1cccc(Cl)c1Cl	3.98	< 0.001	–	–
COc1nc(Br)cnc1NS(=O)(=O)c1ccccc1Cl	158	–	–	–
C#CCOc1nc(Cl)cnc1NS(=O)(=O)c1cccc(Cl)c1Cl	2.51	–	–	–
COc1nc(Br)cnc1NS(=O)(=O)c1ccccc1	794	–	–	–
COc1nc(Cl)cnc1NS(=O)(=O)c1cccc(F)c1Cl	15.8	–	–	–
COc1nc(Br)cnc1NS(=O)(=O)c1ccc(Cl)cc1Cl	126	–	–	–
COc1nc(Br)cnc1NS(=O)(=O)c1sc(Cl)cc1Br	39.8	–	–	–
CCc1nc(Br)cnc1NS(=O)(=O)c1ccc(Cl)s1	5010	–	–	–
COc1nc(Cl)cnc1NS(=O)(=O)c1cccc(Cl)c1F	79.4	–	–	–
CSc1nc(Br)cnc1NS(=O)(=O)c1ccc(Cl)s1	3160	–	–	–
COc1ncc(Cl)nc1NS(=O)(=O)c1cccc(Cl)c1Cl	7.94	< 0.001	4.5	–
COc1nc(Br)cnc1NS(=O)(=O)c1cccs1	631	–	–	–
COc1nc(Br)cnc1NS(=O)(=O)c1cccc(Cl)c1Cl	10	< 0.001	–	–
COc1nc(Br)cnc1NS(=O)(=O)c1cc(Cl)c(Cl)s1	1000	–	–	–
COc1nc(Br)cnc1NS(=O)(=O)c1cccc(Cl)c1	100	–	–	–
CCOc1nc(Br)cnc1NS(=O)(=O)c1ccc(Cl)s1	200	–	–	–
CCCCS(=O)(=O)Nc1ncc(Cl)nc1OC	3160	–	–	–
COc1nc(Cl)cnc1NS(=O)(=O)c1scc(Cl)c1Cl	7.94	–	–	–
O=S(=O)(Nc1ncc(Cl)nc1OCc1ccccc1CO)c1cccc(Cl)c1Cl	–	< 0.001	–	–
COc1nc(Cl)cnc1NS(=O)(=O)c1cccc(Cl)c1C#N	63.1	–	–	–
COc1ncc(F)nc1NS(=O)(=O)c1cccc(Cl)c1Cl	3.98	< 0.002	3.3	–

Structure (SMILES)	IC50 [1] [nM]	fraction unbound [2]	logP [3]	inhibition [4] [%]
CNc1nc(Br)cnc1NS(=O)(=O)c1ccc(Cl)s1	> 10000	–	–	44
COc1nc(Br)cnc1NS(=O)(=O)c1ccsc1	1260	–	–	–
CCOc1cnc(NS(=O)(=O)c2cccc(Cl)c2Cl)c(OC)n1	12.6	< 0.001	4.1	–
COc1nc(Br)cnc1NS(=O)(=O)c1c(Cl)cccc1Cl	631	–	–	–
COc1nc(Br)cnc1NS(=O)(=O)c1cc(Cl)cc(Cl)c1	5010	–	–	–
COc1nc(C)cnc1NS(=O)(=O)c1cccc(Cl)c1Cl	39.8	0.0035	3	–
COc1nc(Cl)cnc1NS(=O)(=O)c1cccc(C(F)(F)F)c1Cl	63.1	–	–	–
COc1nc(CO)c(C)nc1NS(=O)(=O)c1cccc(Cl)c1Cl	39.8	0.013	2.4	–
COc1nc(F)c(F)nc1NS(=O)(=O)c1cccc(Cl)c1Cl	1	< 0.002	–	–
O=S(=O)(Nc1ncc(Cl)nc1OCc1cncnc1)c1cccc(Cl)c1Cl	12.6	< 0.001	–	–
COc1nc(Br)cnc1NS(=O)(=O)c1ccc(Cl)c(Cl)c1	200	–	–	–
COc1nc(Br)cnc1NS(=O)(=O)c1sccc1-c1ccccc1	1000	–	–	–
COc1nc(Br)cnc1NS(=O)(=O)c1cc(Cl)ccc1Cl	3160	–	–	–
COc1nc(Cl)cnc1NS(=O)(=O)c1cccc(Cl)c1Cl	–	< 0.001	4.1	–
COc1nc(Cl)cnc1NS(=O)(=O)c1cccc(Cl)c1C	20	–	–	–
COc1nc(CO)cnc1NS(=O)(=O)c1cccc(Cl)c1Cl	25.1	0.038	2.1	–
COc1nc(CO)c(Cl)nc1NS(=O)(=O)c1cccc(Cl)c1Cl	3.98	0.004	3.2	–
COc1nccnc1NS(=O)(=O)c1scc(Cl)c1Cl	20	0.025	2.8	–
COc1nc(Br)cnc1NS(=O)(=O)c1ccc(Cl)cc1	126	–	–	–
C=CCOc1nc(Cl)cnc1NS(=O)(=O)c1cccc(Cl)c1Cl	15.8	–	–	–
O=S(=O)(Nc1ncc(Cl)nc1OCc1cccnc1)c1cccc(Cl)c1Cl	0.631	< 0.001	–	–
COc1nc(S(C)(=O)=O)cnc1NS(=O)(=O)c1cccc(Cl)c1Cl	5010	–	–	–
COc1ncc(C)nc1NS(=O)(=O)c1cccc(Cl)c1Cl	50.1	< 0.002	–	–

— ChEMBL document CHEMBL4130457, “Discovery of AZD-2098 and AZD-1678, Two Potent and Bioavailable CCR4 Receptor Antagonists” (ACS Med Chem Lett, 2017)
